For 3 molecules, allergen-eliminating effect and immunological effect results are on record in patent US10315146B2, “Filter medium for deactivating allergens” (Carl Freudenberg KG, priority 2015, dated 2019).

Test [1] has as its system Antigen Bet v1 from pollen. As to the kind of experiment: ELISA test of allergen-deactivating efficiency of the filter medium (birch pollen antigen). As to conditions: summary of Table 1; acid on filter medium in dry state. The class given is biochemical. For orientation: In an ELISA, binding on a coated surface is turned into a signal by an enzyme label.
Procedure: A carrier non-woven fabric of polyester spunbonded non-woven (weight per unit area 125 g/m^2) is finished in an allergen-deactivating manner with a mixture of lauric acid and citric acid. The allergen-deactivating doping of the carrier non-woven is carried out by applying a mixture of the active ingredients in aqueous solution to the carrier non-woven and subsequently drying the now finished non-woven fabric to thereby obtain a sample for analysis.
The size of the sample used in the test is 10 mm×10 mm.
Allergen sources used and antigens to be tested: • a) Allergen house dust mite: Antigen Der p1 from excrement • b) Allergen birch pollen: Antigen Bet v1 from pollen
Allergen sources from Allergon AB, Ängelholm, Sweden were used. […]
Test [2] concerns the target T1, Antigen Der p1 from excrement (Dermatophagoides pteronyssinus, UniProt P08176).
T1 construct: tissue Allergon AB, Ängelholm, Sweden; host or cells: house dust mite excrement
As to the kind of experiment: ELISA test of allergen-deactivating efficiency of the filter medium (house dust mite antigen). Type of test: biochemical. As to conditions: text summary of Table 4; compared with the acids used according to the invention. The text has this:
In the examples, ELISA (enzyme-linked immunosorbent assay) is used as a method for measuring the deactivation abilities of different active ingredient compositions in respect of particular allergens.
The ELISA method can measure allergen concentrations by assessing color changes due to antigen-antibody reactions.
A carrier non-woven fabric of polyester spunbonded non-woven (weight per unit area 125 g/m^2) is finished in an allergen-deactivating manner with a mixture of lauric acid and citric acid. […]
The absorption of the microplate is established according to the specifications of the ELISA kit manufacturer using a microplate reading device at a wavelength of 405 nm and thus the allergen concentration (antigen content) of each sample is determined.
To determine the allergen-deactivating efficiency, each antigen concentration of the sample reaction solution is determined according to the specifications of the ELISA kit manufacturer using a microplate reading device at a wavelength of 405 nm.
Here, the starting concentration and the measured allergen concentration of the sample correspond to an antigen-specific concentration in ng/ml. […]

T1 sequence (P08176 99-320): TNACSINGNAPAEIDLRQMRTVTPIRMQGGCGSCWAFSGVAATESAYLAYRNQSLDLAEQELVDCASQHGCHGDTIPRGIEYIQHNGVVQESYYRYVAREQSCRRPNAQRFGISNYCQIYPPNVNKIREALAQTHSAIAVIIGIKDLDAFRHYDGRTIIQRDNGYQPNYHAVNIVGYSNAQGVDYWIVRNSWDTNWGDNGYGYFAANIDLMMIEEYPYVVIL

`O=C(O)CC(O)(CC(=O)O)C(=O)O` [citric acid]: the allergen-eliminating effect result in test [1] was “high allergen-eliminating effect”.

Regarding `O=C(O)CC(O)C(=O)O` (stereo not drawn) [malic acid], the allergen-eliminating effect entry in test [1] is recorded as “high allergen-eliminating effect”.

With `O=C([O-])[O-].[K+].[K+]` [potassium carbonate], in test [2], the immunological effect entry is recorded as “significantly lower than that of the acids used according to the invention”.
